Here are results for 1 compound from patent publication US8772493B2, “Compounds having auditory protective effect” (Ajou University Industry-Academic Cooperation Foundation, priority 2010, dated 2014).

Data set [1] concerns zebrafish (Danio rerio) embryo. As to the kind of experiment: Drug toxicity in zebrafish and effect on zebrafish embryos. The class given is in vivo. The procedure:
To identify the drug toxicity of the compound of the present invention, zebrafish (Danio rerio) embryo was treated with the compound of Example 1 by concentrations (0, 50, 100, 150, 200, 400 μM), and then cultured in the incubator at 28.5° C. for one hour, washed three times with fresh 0.3× Danieu's Solution, and then cultured at 28.5° C. for 3 hours. The embryotoxicity was identified by examining the hatching rate, organogenesis, development, etc. of embryo under a microscope (AXIO vert 200, Carl zeiss, Gottingen, Germany), and the survival rate of embryo was determined depending on whether the cardiac contractility of embryo is present or absent.
Further, to determine the general toxicity of the compound of Example 1, the influence of the compound of Example 1 on embryos of zebrafish were tested. One female and two male sexually mature zebrafish were maintained for a 14 h light/10 h dark photoperiod. Several rectangular mesh wire boxes were placed at the bottom of the aquaria to collect the eggs the following morning. The eggs were pre-treated with the compound of Example 1 (100 μg/ml) for 1 hr, after then the eggs were washed twice with sea salt 1×. […] After three washes with sea salt 1×, the zebrafish eggs were observed under a microscope.

Data set [2] deals with HEI-OC1 cells. As to the kind of experiment: Measurement of intracellular ROS generation (DCFDA). Format: cell-based. As to conditions: 50 μM cisplatin plus compound (100 μg/ml), 16 h. Here is the method:
Intracellular generation of ROS was quantified using 5-(and 6)-carboxyl-20,70-dichlorodihydro fluorescein diacetate (DCFDA; Molecular Probes, Eugene, Oreg., USA). […] ROS generation at various time points was checked and the amount of ROS generation was the highest at 16 h. Therefore, 16 h as the time point for ROS detection was chosen for subsequent experiments. Cells were incubated in the dark with 10 μM DCFDA in serum-free medium for 10 min at 33° C. The oxidative burst (hydrogen peroxide, H2O2) was detected using a FACScan flow cytometer (Becton Dickinson, Franklin Lakes, N.J., USA) with excitation and emission settings at 488 and 530 nm, respectively.

Data set [3] has as its system zebrafish neuromast. As to the kind of experiment: Observation of zebrafish neuromast using fluorescent microscope (Yo-Pro-1). The class given is in vivo, Danio rerio. The following applies: cisplatin plus compound, dose-dependent. The procedure:
When embryo of zebrafish (Danio rerio) wild type is on the 4th day, the drugs (compounds of Examples 1 and 2) were added to 2 ml of embryo media in 6 well, and then 5 embryos were added to each group and reacted with the drug in the incubator maintained at 28.5° C. for one hour. After reaction, embryos were washed three times with embryo media, and then placed in clean embryo media for 3 hours. After 3 hours, […] of Yo-Pro-1 (molecular probes, Oregon U.S.A) was added to embryo media, and then reacted for one hour in the place with blocking the light. After reaction, embryos were washed again three times with clean embryo media, and anesthetized with 8 μg/ml of MS222 (3-aminobenzoic aid ethyl ester, methanesulfonate salt, Sigma Chemical CO, St Louis, U.S.A) anesthetic.

The test system of data set [4] is HEI-OC1. Nature of the data set: TUNEL assay. Format: cell-based. The procedure: 3×10^5 cells were seeded on the 6-well, incubated, then starved for 24 hours, and treated with the drug of the present invention by conditions, and then incubated for 24 hours. The cells were fixed with addition of 4% paraformaldehyde at normal temperature for 30 minutes, then washed two times with PBS, and treated with the permeablilization solution comprising 0.1% Triton X-100 at normal temperature for 10 minutes. The cells were washed again two times with PBS, and after adding terminal deoxynucleotidyl transferase (TDT) and nucleotide mixture, incubated for one hour with blocking out the light at 37° C. After washing two times with PBS, the apoptosis of cells was examined under fluorescence microscope. For control staining of cells without apoptosis, 4,6-diamino-2-phenylindole (DAPI, Sigma) solution was used. The stained cells were analyzed using a fluorescence microscope (Carl Zeiss, Oberkochen, Germany). TUNEL-positive cells were manually counted under a 200× magnification field in triplicate.

In data set [5] the test system is rat hearing. As to the kind of experiment: Measurement of brainstem evoked potential hearing in rat. The class given is in vivo. As to conditions: cisplatin in combination with compound (2 mM inside eardrum).
Procedure: Rats were anesthetized with a mixed anesthetic of 1:1 zoletil and rompun, and then subjected to the examination of brainstem evoked potential hearing. […] The stimulus sound was measured by lowering 13 times/sec of the alternating click sound from the strength of 75 dB HL at the ratio of 5 dB per step. The hearing threshold was defined to be a strength at which the normal wave form I is assumed on the basis of the wave form I, the frequency filter of click sound was controlled to 100-3000 Hz, and the number of total stimulus sound was 1,024.
The drug was administered inside eardrum of rats with a 26 gage needle. The brainstem evoked potential hearing was measured a total of three times on days 1, 3 and 7 after administration of the drug.
In data set [6] the test system is UB-OC1. Nature of the data set: MTT assay in auditory cells UB-OC1. The class given is cell-based. Here is the method: HEI-OC1 and UB-OC1 as auditory cells were subjected to MTT assay. Auditory cell lines were seeded on a 96-well plate in the ratio of 2×10^3 cells/well, and then cultured in an incubator under the condition of 37° C., 5% CO2 for 2 days. The compounds of Examples 1 and 2 were used at various concentrations with operating 5 runs for each sample, and then cultured in the incubator for 16 hours. The plate was treated with 1 mg/ml MTT solution per well, and then cultured in the incubator for 4 hours. Then, 100 μl DMSO per well was used to dissolve formazan, and the optical density of formazan as dissolved was measured at 540 nm.

Data set [7] concerns HEI-OC1 cells. As to the kind of experiment: Cell cycle analysis using FACScan. The class given is cell-based. The following applies: cisplatin plus compound. Here is the method: The cells were treated with trypsin, washed with PBS, and then stained with a dye (5 mg/ml propidium iodide, 20 mg/ml RNase A) in a dark room at normal temperature for 15 minutes. The stained cells were analyzed with a flow cytometry cell sorter (Becton Dickinson).

The test system of data set [8] is neuromasts of zebrafish. Format: in vivo. The following applies: 4 dpf larvae, 50 μM cisplatin co-treatment with compound. The procedure: To detect the apoptotic cells in the embryos, TUNEL assay was employed. […] Thereafter, the larvae were washed with PBS and fixed in 4% paraformaldehyde with 0.1% Tween 20 at room temperature for 24 h. The fixed embryos were then dehydrated, rehydrated, and treated with 60 μg/ml protease kinase (Invitrogen, USA) for 10 min. After the protease kinase treatment, the embryos were fixed in 4% paraformaldehyde in PBS with 0.1% Tween 20 again. The TUNEL staining was achieved by using an in situ apoptosis detection kit. The fixed embryos were immersed in the permeabilization buffer for 30 min on ice. The apoptotic cells were labeled by staining the embryos in a mixture of Terminal Deoxynucleotidyl Transferase (TdT) enzyme and labeling safe buffer containing Fluorescein labeled-2′-Deoxyuridine, 5′-Triphosphate, FITC-dUTP in the ratio of 1 to 9. The embryos were then incubated in a 37° C. humidified chamber for 120 min. The embryos were finally washed thoroughly by PBS in 0.1% Tween 20. The apoptotic signals were captured by a fluorescence microscope (Carl Zeiss, Oberkochen, Germany).

Structures are written as SMILES.

In the case of `NC1(c2ccc(F)cc2)C(=O)Nc2ccccc2C1=O` (stereo not shown) [Example 1, 3-amino-3-(4-fluorophenyl)quinolin-2,4(1H,3H)-dione], in data set [1] (50, 100, 150, 200, 400 μM), the “drug toxicity for 7 days after incubation of zebrafish” value was “did not show the drug toxicity”. Moreover, the “zebrafish embryos, damage caused by cisplatin” value in data set [1] (cisplatin (50 μM) plus compound, 24 h) is on record as “rescued”. For the same compound, in data set [1] (even at the concentration of 400 μM), the “embryotoxicity in zebrafish model” value is reported as “did not show the drug toxicity”. The “cisplatin-induced intracellular ROS generation” value in data set [2] is recorded as “significantly inhibited”. For the same compound, the “neuromast including auditory hair cells disappeared by cisplatin” value in data set [3] is listed as “effectively protected”. Also, in data set [4] (cisplatin (50 μM with Example 1, 20 μM with Example 2) and compound administered at the same time), the “apoptosis of auditory cells (TUNEL), cisplatin and compound at the same time” value was “inhibited”. In addition, the “apoptosis (TUNEL positive cells) on administration of compound alone” value in data set [4] (compound alone) is “did not cause apoptosis”. Further, the “effect of 100 μM compared to 50 μM of compound (TUNEL)” value in data set [4] (with cisplatin, dose-dependent manner) is on record as “better effect”. In addition, the hearing threshold in data set [5] is listed as 25˜35 dB. In addition, the “cisplatin-induced apoptosis of auditory hair cells (MTT)” value in data set [6] (UB-OC1, 50 of cisplatin plus compound, as the dose of the compound increases) is “statistically significantly inhibited”. Besides, the “cytotoxicity in auditory hair cells (MTT)” value in data set [6] (UB-OC1, compound alone, up to elevated dose of 200) was “substantially no cytotoxicity”. Further, in data set [7], the “cisplatin-induced increase in sub G1” value is given as “effectively reduced”. Further, in data set [8], the “TUNEL positive cells in zebrafish larvae compared to cisplatin alone” value is on record as “reduced TUNEL positive cells”.
